For twelve compounds, T/C results are on record in PubChem BioAssay AID248 (DTP/NCI, 2004).

The assay has as its system L1210 leukemia ip in BDF1 mice, survival T/C. Nature of the assay: NCI In Vivo Anticancer Drug Screen. Data for tumor model L1210 Leukemia (intraperitoneal) in B6D2F1 (BDF1) mice. The following applies: higher = longer survival. The gist of the method:
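Transplanted-tumor mice were given test agent; controls received vehicle only. Survival readings from the two groups were divided (treated over control).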

The mark [1] stands for this setting: endpoint: mean survival time, dose: 200.0 mg/kg/injection, schedule: Q04DX003 (ip), vehicle: saline with Tween-80.
[2] abbreviates: endpoint: mean survival time, dose: 100.0 mg/kg/injection, schedule: Q01DX009 (ip), vehicle: saline with Tween-80.
The mark [3] stands for this setting: endpoint: mean survival time, dose: 200.0 mg/kg/injection, schedule: Q01DX009 (ip), vehicle: saline with Tween-80.
[4] abbreviates: endpoint: mean survival time, dose: 400.0 mg/kg/injection, schedule: Q01DX009 (ip), vehicle: saline with Tween-80.

Values joined by “and” are separate entries in the source; they are usually repeats but may differ in a detail not shown here. Equal values may be shown once. Inconclusive results and toxic doses are left out.

Consider `O=S(=O)(c1ccc(Cl)cc1)c1ccc(Cl)cc1`, for which the T/C (endpoint: mean survival time, dose: 100.0 mg/kg/injection, schedule: Q01DX009 (ip), vehicle: saline) is 91 % of control; the T/C (endpoint: mean survival time, dose: 100.0 mg/kg/injection, schedule: Q04DX003 (ip), vehicle: saline with Tween-80) is 102 % of control; the T/C (endpoint: mean survival time, dose: 100.0 mg/kg/injection, schedule: Q04DX003 (ip), vehicle: saline) was 104 % of control; the T/C (endpoint: mean survival time, dose: 200.0 mg/kg/injection, schedule: Q01DX009 (ip), vehicle: saline) was 95 % of control; the T/C under setting [1] was 107 % of control; the T/C (endpoint: mean survival time, dose: 200.0 mg/kg/injection, schedule: Q04DX003 (ip), vehicle: saline) is 95 % of control. For the same compound, the T/C is 93 % of control (endpoint: mean survival time, dose: 400.0 mg/kg/injection, schedule: Q01DX009 (ip), vehicle: saline); 95 % of control (endpoint: mean survival time, dose: 400.0 mg/kg/injection, schedule: Q04DX003 (ip), vehicle: saline with Tween-80); 106 % of control (endpoint: mean survival time, dose: 400.0 mg/kg/injection, schedule: Q04DX003 (ip), vehicle: saline).

For the compound `CCOC(=O)c1cnc(SCC)nc1SC#N`, the T/C runs as follows: (endpoint: mean survival time, dose: 100.0 mg/kg/injection, schedule: Q01DX009 (ip), vehicle: gum acacia) 105 % of control; (endpoint: mean survival time, dose: 100.0 mg/kg/injection, schedule: Q04DX003 (ip), vehicle: gum acacia) 105 % of control; (endpoint: mean survival time, dose: 200.0 mg/kg/injection, schedule: Q01DX009 (ip), vehicle: gum acacia) 106 % of control; (endpoint: mean survival time, dose: 200.0 mg/kg/injection, schedule: Q04DX003 (ip), vehicle: gum acacia) 97 % of control; (endpoint: mean survival time, dose: 400.0 mg/kg/injection, schedule: Q01DX009 (ip), vehicle: gum acacia) 97 % of control; (endpoint: mean survival time, dose: 400.0 mg/kg/injection, schedule: Q04DX003 (ip), vehicle: gum acacia) 97 % of control.

For the compound `CCOC=Nc1c(N)ncnc1Cl`, the T/C is 93 % of control (endpoint: mean survival time, dose: 125.0 mg/kg/injection, schedule: Q01DX Z (ip), vehicle: other); 93 % of control (endpoint: mean survival time, dose: 250.0 mg/kg/injection, schedule: Q01DX Z (ip), vehicle: other); 103 % of control (endpoint: mean survival time, dose: 500.0 mg/kg/injection, schedule: Q01DX Z (ip), vehicle: other).

With `CCOC(=O)/C(C#N)=C(\CCCCc1ccccc1)CC(C)C`, the T/C (endpoint: mean survival time, dose: 100.0 mg/kg/injection, schedule: Q04DX002 (ip), vehicle: saline with Tween-80) was 101 % of control; the T/C (endpoint: mean survival time, dose: 200.0 mg/kg/injection, schedule: Q04DX002 (ip), vehicle: saline with Tween-80) is 92 % of control; the T/C (endpoint: mean survival time, dose: 400.0 mg/kg/injection, schedule: Q04DX002 (ip), vehicle: saline with Tween-80) was 104 % of control.

As to `Cc1ncn[nH]1`, the T/C runs as follows: (endpoint: mean survival time, dose: 100.0 mg/kg/injection, schedule: Q04DX002 (ip), vehicle: saline) 96 % of control; (endpoint: mean survival time, dose: 200.0 mg/kg/injection, schedule: Q04DX002 (ip), vehicle: saline) 100 % of control; (endpoint: mean survival time, dose: 400.0 mg/kg/injection, schedule: Q04DX002 (ip), vehicle: saline) 89 % of control.

With `O=C(c1ccccc1)C(O)(CC(c1ccccc1)[P+](c1ccccc1)(c1ccccc1)c1ccccc1)c1ccccc1` (configuration not stated), the T/C by setting is: (endpoint: mean survival time, dose: 1.75 mg/kg/injection, schedule: Q01DX009 (ip), vehicle: saline) 93 % of control; (endpoint: mean survival time, dose: 3.5 mg/kg/injection, schedule: Q01DX009 (ip), vehicle: saline) 93 % of control; (endpoint: mean survival time, dose: 6.25 mg/kg/injection, schedule: Q01DX009 (ip), vehicle: Klucel (hydroxypropylcellulose) (HPC)) 102 % of control; (endpoint: mean survival time, dose: 12.5 mg/kg/injection, schedule: Q01DX009 (ip), vehicle: Klucel (hydroxypropylcellulose) (HPC)) 107 % of control; (endpoint: mean survival time, dose: 400.0 mg/kg/injection, schedule: Q01DX001 (ip), vehicle: saline with Tween-80) 87 % of control.

On to `CCOC(=O)c1cnc(N)s1`, for which the T/C was 105 % of control (endpoint: mean survival time, dose: 100.0 mg/kg/injection, schedule: Q01DX001 (ip), vehicle: Klucel (hydroxypropylcellulose) (HPC)); 98 % of control (endpoint: mean survival time, dose: 200.0 mg/kg/injection, schedule: Q01DX001 (ip), vehicle: Klucel (hydroxypropylcellulose) (HPC)); 102 % of control (endpoint: mean survival time, dose: 400.0 mg/kg/injection, schedule: Q01DX001 (ip), vehicle: Klucel (hydroxypropylcellulose) (HPC)).

For `CN(C)c1ccc(/C=N/NC(N)=S)nc1`, the T/C by setting is: (endpoint: mean survival time, dose: 5.0 mg/kg/injection, schedule: Q03HX032 (ip), vehicle: saline with Tween-80) 116 % of control; (endpoint: mean survival time, dose: 12.0 mg/kg/injection, schedule: Q03HX032 (ip), vehicle: saline with Tween-80) 158 % of control; (endpoint: mean survival time, dose: 18.0 mg/kg/injection, schedule: Q03HX032 (ip), vehicle: saline with Tween-80) 188 % of control and 320 % of control; (endpoint: mean survival time, dose: 19.0 mg/kg/injection, schedule: Q04DX003 (ip), vehicle: saline with Tween-80) 110 % of control; (endpoint: mean survival time, dose: 44.0 mg/kg/injection, schedule: Q04DX003 (ip), vehicle: saline with Tween-80) 162 % of control; (endpoint: mean survival time, dose: 67.0 mg/kg/injection, schedule: Q04DX003 (ip), vehicle: saline with Tween-80) 118 % of control. Besides, under setting [1], the T/C was 113 % of control.

With `Cc1ccc(/C=N/NC(=O)CNC(=O)c2ccccc2)cc1`, the T/C is 93 % of control under setting [2], 96 % of control under setting [3] and 98 % of control under setting [4].

Regarding `C[n+]1c2ccccc2c(Nc2ccc(NS(=O)(=O)CCCCN=C(N)N)cc2)c2ccc(N)cc21`, the T/C is 167 % of control (endpoint: mean survival time, dose: 0.5 mg/kg/injection, schedule: Q03HX008 (ip), vehicle: water); 186 % of control (endpoint: mean survival time, dose: 1.5 mg/kg/injection, schedule: Q01DX009 (ip), vehicle: water); 160 % of control (endpoint: mean survival time, dose: 2.0 mg/kg/injection, schedule: Q03HX008 (ip), vehicle: water); 160 % of control and 212 % of control (endpoint: mean survival time, dose: 3.0 mg/kg/injection, schedule: Q01DX009 (ip), vehicle: water); 240 % of control (endpoint: mean survival time, dose: 3.0 mg/kg/injection, schedule: Q03HX008 (ip), vehicle: water); 191 % of control (endpoint: mean survival time, dose: 3.12 mg/kg/injection, schedule: Q04DX003 (ip), vehicle: water). Also, the T/C by setting is: (endpoint: mean survival time, dose: 6.0 mg/kg/injection, schedule: Q01DX009 (ip), vehicle: water) 176 % of control and 218 % of control; (endpoint: mean survival time, dose: 6.0 mg/kg/injection, schedule: Q03HX008 (ip), vehicle: water) 327 % of control; (endpoint: mean survival time, dose: 6.25 mg/kg/injection, schedule: Q04DX003 (ip), vehicle: water) 152 % of control and 170 % of control; (endpoint: mean survival time, dose: 12.0 mg/kg/injection, schedule: Q01DX009 (ip), vehicle: water) 269 % of control; (endpoint: mean survival time, dose: 12.5 mg/kg/injection, schedule: Q01DX001 (ip), vehicle: water) 186 % of control; (endpoint: mean survival time, dose: 12.5 mg/kg/injection, schedule: Q04DX003 (ip), vehicle: water) 171 % of control and 202 % of control. In addition, the T/C (endpoint: mean survival time, dose: 25.0 mg/kg/injection, schedule: Q01DX001 (ip), vehicle: water) was 207 % of control; the T/C (endpoint: mean survival time, dose: 25.0 mg/kg/injection, schedule: Q04DX003 (ip), vehicle: water) was 194 % of control and 225 % of control; the T/C (endpoint: median survival time, dose: 3.0 mg/kg/injection, schedule: Q01DX009 (oral), vehicle: water) was 97 % of control; the T/C (endpoint: median survival time, dose: 6.0 mg/kg/injection, schedule: Q01DX009 (oral), vehicle: water) was 103 % of control; the T/C (endpoint: median survival time, dose: 6.0 mg/kg/injection, schedule: Q01DX009 (sc), vehicle: water) is 166 % of control; the T/C (endpoint: median survival time, dose: 12.0 mg/kg/injection, schedule: Q01DX009 (oral), vehicle: water) is 98 % of control. Moreover, the T/C (endpoint: median survival time, dose: 12.0 mg/kg/injection, schedule: Q01DX009 (sc), vehicle: water) was 163 % of control; the T/C (endpoint: median survival time, dose: 24.0 mg/kg/injection, schedule: Q01DX009 (oral), vehicle: water) is 94 % of control; the T/C (endpoint: median survival time, dose: 48.0 mg/kg/injection, schedule: Q01DX009 (oral), vehicle: water) was 95 % of control.

As for `CCCCCCCCCCC(=O)OCC#CC#CCOC(=O)CCCCCCCCCC`, the T/C (endpoint: mean survival time, dose: 100.0 mg/kg/injection, schedule: Q01DX009 (ip), vehicle: Klucel (hydroxypropylcellulose) (HPC)) was 97 % of control; the T/C (endpoint: mean survival time, dose: 100.0 mg/kg/injection, schedule: Q04DX003 (ip), vehicle: Klucel (hydroxypropylcellulose) (HPC)) is 103 % of control; the T/C (endpoint: mean survival time, dose: 200.0 mg/kg/injection, schedule: Q01DX009 (ip), vehicle: Klucel (hydroxypropylcellulose) (HPC)) was 98 % of control; the T/C (endpoint: mean survival time, dose: 200.0 mg/kg/injection, schedule: Q04DX003 (ip), vehicle: Klucel (hydroxypropylcellulose) (HPC)) is 92 % of control; the T/C (endpoint: mean survival time, dose: 400.0 mg/kg/injection, schedule: Q01DX009 (ip), vehicle: Klucel (hydroxypropylcellulose) (HPC)) is 101 % of control; the T/C (endpoint: mean survival time, dose: 400.0 mg/kg/injection, schedule: Q04DX003 (ip), vehicle: Klucel (hydroxypropylcellulose) (HPC)) is 91 % of control.

For the compound `c1ccc(C2=Nc3ccccc3C(c3ccccc3)=Nc3ccccc32)cc1`, the T/C is, setting by setting: under setting [2], 89 % of control; under setting [3], 97 % of control; under setting [4], 89 % of control.
